What all share (test): microfluidic mobility shift (LabChip), FAM-acetylated peptide substrate
Holding throughout (assay type): biochemical

For one test, the target named is T1, HDAC4 (Homo sapiens, UniProt P56524).
T1 construct: purified commercial enzyme from BPS Bioscience
To be noted: read-out: HDAC IC50 (μM) without preincubation / HDAC4. The text has this: microfluidic mobility shift (LabChip), FAM-acetylated peptide substrate on HDAC4

A further test concerns the target T2, HDAC6 (Homo sapiens, UniProt Q9UBN7).
T2 construct: purified commercial enzyme from BPS Bioscience
T2 sequence (Q9UBN7 1-1215): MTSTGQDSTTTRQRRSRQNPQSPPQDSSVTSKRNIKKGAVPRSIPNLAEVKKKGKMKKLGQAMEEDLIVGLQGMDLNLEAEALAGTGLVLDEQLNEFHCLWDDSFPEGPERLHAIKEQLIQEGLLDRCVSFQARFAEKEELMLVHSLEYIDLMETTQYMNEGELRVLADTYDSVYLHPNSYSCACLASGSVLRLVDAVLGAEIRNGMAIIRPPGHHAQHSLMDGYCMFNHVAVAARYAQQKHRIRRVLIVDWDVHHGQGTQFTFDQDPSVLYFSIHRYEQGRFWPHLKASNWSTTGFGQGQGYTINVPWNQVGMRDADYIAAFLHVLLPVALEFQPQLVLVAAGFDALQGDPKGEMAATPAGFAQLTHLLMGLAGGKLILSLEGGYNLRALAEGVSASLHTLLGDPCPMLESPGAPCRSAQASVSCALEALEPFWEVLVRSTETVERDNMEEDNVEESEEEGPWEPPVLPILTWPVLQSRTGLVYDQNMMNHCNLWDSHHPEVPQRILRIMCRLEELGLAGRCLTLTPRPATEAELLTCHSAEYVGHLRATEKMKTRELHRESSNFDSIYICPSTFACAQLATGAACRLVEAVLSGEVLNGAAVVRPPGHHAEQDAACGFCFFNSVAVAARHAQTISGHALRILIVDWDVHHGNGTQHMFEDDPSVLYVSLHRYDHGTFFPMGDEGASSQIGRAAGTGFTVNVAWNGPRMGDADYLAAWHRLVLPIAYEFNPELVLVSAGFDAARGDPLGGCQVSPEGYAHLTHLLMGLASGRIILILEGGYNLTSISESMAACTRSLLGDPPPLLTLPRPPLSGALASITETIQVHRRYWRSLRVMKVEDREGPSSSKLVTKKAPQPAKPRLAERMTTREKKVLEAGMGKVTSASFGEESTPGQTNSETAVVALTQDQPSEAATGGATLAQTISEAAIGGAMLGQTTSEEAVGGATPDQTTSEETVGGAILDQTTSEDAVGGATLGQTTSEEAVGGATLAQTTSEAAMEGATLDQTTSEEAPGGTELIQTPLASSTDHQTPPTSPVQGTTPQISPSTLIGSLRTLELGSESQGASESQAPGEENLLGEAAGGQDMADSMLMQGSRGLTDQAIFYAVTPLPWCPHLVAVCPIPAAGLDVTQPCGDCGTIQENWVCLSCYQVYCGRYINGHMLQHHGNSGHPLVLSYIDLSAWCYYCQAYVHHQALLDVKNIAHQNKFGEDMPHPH
The following applies: read-out: HDAC IC50 (μM) without preincubation / HDAC4. The text has this: microfluidic mobility shift (LabChip), FAM-acetylated peptide substrate on HDAC6

The next test has as its target T3, HDAC7 (Homo sapiens, UniProt Q8WUI4).
T3 construct: purified commercial enzyme from BPS Bioscience
T3 sequence (Q8WUI4 518-952 limits assumed): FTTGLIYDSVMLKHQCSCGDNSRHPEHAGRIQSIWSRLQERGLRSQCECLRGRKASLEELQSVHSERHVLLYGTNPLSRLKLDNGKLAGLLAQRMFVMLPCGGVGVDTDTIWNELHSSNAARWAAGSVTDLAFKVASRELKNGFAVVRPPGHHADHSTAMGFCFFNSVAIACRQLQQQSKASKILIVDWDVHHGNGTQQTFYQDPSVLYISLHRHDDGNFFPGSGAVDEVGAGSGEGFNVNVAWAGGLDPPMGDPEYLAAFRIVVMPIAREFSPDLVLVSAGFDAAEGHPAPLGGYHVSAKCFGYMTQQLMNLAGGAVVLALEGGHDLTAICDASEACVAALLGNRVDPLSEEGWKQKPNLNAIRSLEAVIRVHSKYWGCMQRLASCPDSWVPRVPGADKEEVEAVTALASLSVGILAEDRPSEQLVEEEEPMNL
To be noted: read-out: HDAC IC50 (μM) without preincubation / HDAC4. From the text:
microfluidic mobility shift (LabChip), FAM-acetylated peptide substrate on HDAC7

The next test deals with T4, HDAC2 (Homo sapiens, UniProt Q92769).
T4 construct: purified commercial enzyme from BPS Bioscience
To be noted: without preincubation; […] min, room temperature, pH […] substrate; read-out: HDAC IC50 (μM) without preincubation / HDAC2. The text has this:
microfluidic mobility shift (LabChip), FAM-acetylated peptide substrate on HDAC2

A further test concerns the target T5, HDAC3 (Homo sapiens, UniProt O15379).
T5 construct: purified commercial enzyme from BPS Bioscience; with Nuclear receptor corepressor 2
To be noted: without preincubation; […] min, room temperature, pH […] substrate; read-out: HDAC IC50 (μM) without preincubation / HDAC3. The text has this:
microfluidic mobility shift (LabChip), FAM-acetylated peptide substrate on HDAC3

The target in the next test is T6, HDAC9 (Homo sapiens, UniProt Q9UKV0).
T6 construct: purified commercial enzyme from BPS Bioscience
To be noted: read-out: HDAC IC50 (μM) without preincubation / HDAC9. The text has this: microfluidic mobility shift (LabChip), FAM-acetylated peptide substrate on HDAC9

A further test addresses T7, HDAC1 (Homo sapiens, UniProt Q13547).
T7 construct: purified commercial enzyme from BPS Bioscience
To be noted: without preincubation; […] min, room temperature, pH […] substrate; read-out: HDAC IC50 (μM) without preincubation / HDAC1. From the text: microfluidic mobility shift (LabChip), FAM-acetylated peptide substrate on HDAC1

A further test concerns the target T8, HDAC5 (Homo sapiens, UniProt Q9UQL6).
T8 construct: purified commercial enzyme from BPS Bioscience
The following applies: read-out: HDAC IC50 (μM) without preincubation / HDAC5. The text has this:
microfluidic mobility shift (LabChip), FAM-acetylated peptide substrate on HDAC5

In another test the target is T9, HDAC8 (Homo sapiens, UniProt Q9BY41).
T9 construct: purified commercial enzyme from BPS Bioscience
T9 sequence (Q9BY41 1-377): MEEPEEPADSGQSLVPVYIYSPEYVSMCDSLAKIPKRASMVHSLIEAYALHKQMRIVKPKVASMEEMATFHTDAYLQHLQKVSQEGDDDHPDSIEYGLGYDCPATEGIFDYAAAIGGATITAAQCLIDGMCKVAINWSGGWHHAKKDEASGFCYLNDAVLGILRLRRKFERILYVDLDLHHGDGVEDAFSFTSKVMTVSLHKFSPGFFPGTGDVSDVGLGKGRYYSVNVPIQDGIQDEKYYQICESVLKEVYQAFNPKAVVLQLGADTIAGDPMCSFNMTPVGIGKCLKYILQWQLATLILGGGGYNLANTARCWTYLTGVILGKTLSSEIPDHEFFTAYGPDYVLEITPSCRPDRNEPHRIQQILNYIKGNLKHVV
The following applies: read-out: HDAC IC50 (μM) without preincubation / HDAC4. From the text:
microfluidic mobility shift (LabChip), FAM-acetylated peptide substrate on HDAC8

Structures are written as SMILES.

T5 sequence (O15379 whole entry): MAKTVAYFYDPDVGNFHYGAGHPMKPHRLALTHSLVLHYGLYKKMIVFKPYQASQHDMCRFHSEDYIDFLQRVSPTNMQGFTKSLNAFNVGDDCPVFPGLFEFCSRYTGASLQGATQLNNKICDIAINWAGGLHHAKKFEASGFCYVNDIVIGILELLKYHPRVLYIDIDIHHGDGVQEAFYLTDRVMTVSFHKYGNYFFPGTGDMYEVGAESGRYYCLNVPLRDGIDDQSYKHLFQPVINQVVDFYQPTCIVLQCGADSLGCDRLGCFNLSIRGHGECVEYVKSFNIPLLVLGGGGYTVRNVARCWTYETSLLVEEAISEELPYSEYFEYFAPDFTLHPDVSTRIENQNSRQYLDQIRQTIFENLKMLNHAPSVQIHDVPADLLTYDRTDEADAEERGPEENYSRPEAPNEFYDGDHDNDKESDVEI
T5 sequence (Q9Y618 whole entry partner): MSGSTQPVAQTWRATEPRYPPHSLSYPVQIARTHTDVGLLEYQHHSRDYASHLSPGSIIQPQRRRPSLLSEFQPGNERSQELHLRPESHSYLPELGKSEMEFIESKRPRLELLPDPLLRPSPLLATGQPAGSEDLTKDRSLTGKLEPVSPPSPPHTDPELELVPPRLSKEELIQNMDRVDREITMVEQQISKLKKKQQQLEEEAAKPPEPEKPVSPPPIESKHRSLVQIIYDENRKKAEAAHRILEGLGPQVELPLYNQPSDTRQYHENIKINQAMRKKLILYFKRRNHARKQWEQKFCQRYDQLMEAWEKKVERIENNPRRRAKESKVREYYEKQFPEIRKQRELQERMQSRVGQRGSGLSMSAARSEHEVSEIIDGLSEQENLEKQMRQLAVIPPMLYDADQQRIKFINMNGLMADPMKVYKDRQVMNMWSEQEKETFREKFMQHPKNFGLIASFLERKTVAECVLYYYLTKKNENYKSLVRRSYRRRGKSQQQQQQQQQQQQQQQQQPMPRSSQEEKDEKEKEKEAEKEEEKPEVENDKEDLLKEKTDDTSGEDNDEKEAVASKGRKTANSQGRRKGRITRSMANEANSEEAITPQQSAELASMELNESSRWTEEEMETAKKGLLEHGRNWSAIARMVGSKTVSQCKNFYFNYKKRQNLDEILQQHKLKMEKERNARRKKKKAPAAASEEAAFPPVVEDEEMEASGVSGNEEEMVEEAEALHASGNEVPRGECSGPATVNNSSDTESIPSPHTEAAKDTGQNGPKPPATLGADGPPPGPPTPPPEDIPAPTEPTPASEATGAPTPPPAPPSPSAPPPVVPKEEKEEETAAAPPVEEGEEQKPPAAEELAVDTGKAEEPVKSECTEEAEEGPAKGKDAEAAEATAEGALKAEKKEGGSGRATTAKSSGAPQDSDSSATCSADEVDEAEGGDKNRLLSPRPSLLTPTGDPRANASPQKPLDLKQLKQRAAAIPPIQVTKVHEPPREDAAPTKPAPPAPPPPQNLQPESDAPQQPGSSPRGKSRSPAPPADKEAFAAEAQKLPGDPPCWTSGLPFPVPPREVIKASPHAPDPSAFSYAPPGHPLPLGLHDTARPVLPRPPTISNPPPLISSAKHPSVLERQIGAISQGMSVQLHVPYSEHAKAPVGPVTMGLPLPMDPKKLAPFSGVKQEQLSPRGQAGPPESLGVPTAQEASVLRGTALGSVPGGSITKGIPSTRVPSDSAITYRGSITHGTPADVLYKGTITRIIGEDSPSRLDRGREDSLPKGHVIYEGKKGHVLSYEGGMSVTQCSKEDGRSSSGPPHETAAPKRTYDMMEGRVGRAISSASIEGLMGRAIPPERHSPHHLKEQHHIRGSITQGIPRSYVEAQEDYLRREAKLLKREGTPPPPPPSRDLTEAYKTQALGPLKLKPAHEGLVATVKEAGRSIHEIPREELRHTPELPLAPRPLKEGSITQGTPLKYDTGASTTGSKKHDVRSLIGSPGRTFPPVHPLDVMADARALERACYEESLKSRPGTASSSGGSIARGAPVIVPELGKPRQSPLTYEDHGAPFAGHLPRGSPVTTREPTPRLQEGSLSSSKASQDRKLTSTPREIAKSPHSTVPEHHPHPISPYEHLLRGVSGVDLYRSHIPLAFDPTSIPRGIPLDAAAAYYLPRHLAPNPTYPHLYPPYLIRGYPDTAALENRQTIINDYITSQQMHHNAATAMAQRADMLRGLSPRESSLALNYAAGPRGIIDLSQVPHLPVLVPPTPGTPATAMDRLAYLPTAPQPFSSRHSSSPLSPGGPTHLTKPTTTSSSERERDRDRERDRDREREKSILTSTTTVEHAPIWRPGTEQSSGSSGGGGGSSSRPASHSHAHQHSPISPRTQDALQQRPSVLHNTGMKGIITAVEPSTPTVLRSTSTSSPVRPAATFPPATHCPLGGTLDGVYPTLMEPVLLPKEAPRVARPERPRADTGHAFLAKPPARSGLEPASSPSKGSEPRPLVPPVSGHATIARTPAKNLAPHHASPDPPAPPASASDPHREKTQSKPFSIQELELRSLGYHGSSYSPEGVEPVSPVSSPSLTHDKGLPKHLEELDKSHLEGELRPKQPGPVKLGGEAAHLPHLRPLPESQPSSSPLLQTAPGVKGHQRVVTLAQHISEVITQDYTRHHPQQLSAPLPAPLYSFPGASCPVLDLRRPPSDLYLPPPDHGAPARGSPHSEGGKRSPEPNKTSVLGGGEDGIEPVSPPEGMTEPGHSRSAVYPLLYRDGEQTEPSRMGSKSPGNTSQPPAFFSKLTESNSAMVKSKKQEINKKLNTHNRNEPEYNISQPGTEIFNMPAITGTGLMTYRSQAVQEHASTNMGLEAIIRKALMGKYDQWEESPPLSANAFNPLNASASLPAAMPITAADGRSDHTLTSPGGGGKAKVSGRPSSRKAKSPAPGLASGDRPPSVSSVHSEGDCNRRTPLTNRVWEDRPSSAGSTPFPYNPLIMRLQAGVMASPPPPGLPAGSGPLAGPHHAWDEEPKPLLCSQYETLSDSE
T4 sequence (Q92769 whole entry): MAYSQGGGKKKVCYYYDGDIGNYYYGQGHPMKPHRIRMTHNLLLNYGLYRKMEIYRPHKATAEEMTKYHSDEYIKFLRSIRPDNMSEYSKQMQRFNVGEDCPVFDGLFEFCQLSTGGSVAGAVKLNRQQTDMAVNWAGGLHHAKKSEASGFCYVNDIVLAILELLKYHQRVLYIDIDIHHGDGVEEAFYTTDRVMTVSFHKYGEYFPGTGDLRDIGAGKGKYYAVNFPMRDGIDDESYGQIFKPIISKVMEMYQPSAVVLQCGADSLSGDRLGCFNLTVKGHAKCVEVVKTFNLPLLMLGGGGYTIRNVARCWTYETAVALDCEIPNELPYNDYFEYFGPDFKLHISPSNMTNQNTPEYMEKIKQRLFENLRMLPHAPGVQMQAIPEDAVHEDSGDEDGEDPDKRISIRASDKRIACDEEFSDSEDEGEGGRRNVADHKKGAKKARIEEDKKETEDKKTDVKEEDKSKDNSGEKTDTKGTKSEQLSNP
T8 sequence (Q9UQL6 whole entry): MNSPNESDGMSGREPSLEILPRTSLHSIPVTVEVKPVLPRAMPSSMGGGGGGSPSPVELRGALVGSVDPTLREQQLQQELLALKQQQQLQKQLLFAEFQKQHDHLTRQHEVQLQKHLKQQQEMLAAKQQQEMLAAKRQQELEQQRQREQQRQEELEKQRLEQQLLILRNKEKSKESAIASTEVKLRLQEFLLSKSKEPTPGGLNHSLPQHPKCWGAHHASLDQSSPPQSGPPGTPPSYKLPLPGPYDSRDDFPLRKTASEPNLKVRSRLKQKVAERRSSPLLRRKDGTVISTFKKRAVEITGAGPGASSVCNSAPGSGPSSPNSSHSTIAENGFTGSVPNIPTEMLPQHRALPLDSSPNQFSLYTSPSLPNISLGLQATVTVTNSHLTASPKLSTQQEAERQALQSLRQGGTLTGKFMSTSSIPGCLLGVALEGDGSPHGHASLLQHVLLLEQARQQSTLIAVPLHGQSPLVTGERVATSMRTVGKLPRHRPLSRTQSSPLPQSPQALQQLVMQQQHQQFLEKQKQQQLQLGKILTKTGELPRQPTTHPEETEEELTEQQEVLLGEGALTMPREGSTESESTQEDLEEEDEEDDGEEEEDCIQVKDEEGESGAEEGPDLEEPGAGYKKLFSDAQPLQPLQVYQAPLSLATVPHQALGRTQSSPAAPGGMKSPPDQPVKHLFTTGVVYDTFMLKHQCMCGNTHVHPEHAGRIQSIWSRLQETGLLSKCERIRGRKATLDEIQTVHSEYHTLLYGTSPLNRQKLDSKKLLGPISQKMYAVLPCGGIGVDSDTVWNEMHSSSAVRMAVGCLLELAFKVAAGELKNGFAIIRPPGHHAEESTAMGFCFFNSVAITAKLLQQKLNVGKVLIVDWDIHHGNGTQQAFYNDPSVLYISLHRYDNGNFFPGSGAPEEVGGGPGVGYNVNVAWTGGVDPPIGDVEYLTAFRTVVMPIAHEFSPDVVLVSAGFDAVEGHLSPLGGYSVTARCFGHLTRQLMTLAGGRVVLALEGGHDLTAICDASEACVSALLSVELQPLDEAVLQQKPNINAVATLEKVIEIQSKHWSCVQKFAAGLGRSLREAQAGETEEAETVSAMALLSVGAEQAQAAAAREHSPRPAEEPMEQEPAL
T6 sequence (Q9UKV0 604-1011 limits assumed): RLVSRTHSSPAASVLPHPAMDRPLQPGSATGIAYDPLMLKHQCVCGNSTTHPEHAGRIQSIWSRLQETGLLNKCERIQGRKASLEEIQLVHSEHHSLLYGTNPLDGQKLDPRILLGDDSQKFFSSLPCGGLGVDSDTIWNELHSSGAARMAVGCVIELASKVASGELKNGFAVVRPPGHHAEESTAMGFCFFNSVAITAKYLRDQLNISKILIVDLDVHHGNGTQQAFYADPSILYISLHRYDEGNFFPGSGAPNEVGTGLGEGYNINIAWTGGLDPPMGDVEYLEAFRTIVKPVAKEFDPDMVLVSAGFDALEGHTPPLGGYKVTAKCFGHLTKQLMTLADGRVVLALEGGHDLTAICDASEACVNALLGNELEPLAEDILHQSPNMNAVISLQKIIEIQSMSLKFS

For the compound `CC(=O)Nc1ccc(C(=O)Nc2ccc(F)cc2N)cc1` [BRD3308], the IC50 was over 33 µM on HDAC4; over 33 µM at HDAC6; over 33 µM at HDAC7; 1.34 µM at HDAC2; 0.054 µM at HDAC3; over 33 µM on HDAC9. In addition, the IC50 was 1.26 µM at HDAC1, over 33 µM on HDAC5 and over 33 µM on HDAC8.

The values above are taken from paper PMC4138023, “Selective HDAC Inhibition for the Disruption of Latent HIV-1 Infection” (PLoS ONE, 2014).
